# Assay results published in US11673886B2, “5-membered and bicyclic heterocyclic amides as inhibitors of ROCK” (BRISTOL-MYERS SQUIBB COMPANY, priority 2017, dated 2023).
# pIC50: −log10 of the molar value.
# System: ROCK
# Test: not given
# Settings: long term treatment; cited from earlier work
Molecule,coronary constrictive remodeling,coronary stenosis
O=S(=O)(c1cccc2cnccc12)N1CCCNCC1 [fasudil],promote a regression of coronary constrictive remodeling,progressively reduce coronary stenosis

# System: ROCK
# Test: not given
# Settings: rat, in vivo; cited from earlier work
row,Molecule,infarct size and neurologic deficit
1,O=S(=O)(c1cccc2cnccc12)N1CCCNCC1 [fasudil],reduce both the infarct size and neurologic deficit

# Target: ROCK2 (Homo sapiens (Human), UniProt O75116)
# Test: ROCK2 assay (kinase inhibition, FITC peptide substrate, LABCHIP 3000 Reader)
# Type: biochemical
# Settings: 5 μM ATP, 1.5 μM peptide substrate
# ROCK2, sequence (O75116 whole entry, species assumed): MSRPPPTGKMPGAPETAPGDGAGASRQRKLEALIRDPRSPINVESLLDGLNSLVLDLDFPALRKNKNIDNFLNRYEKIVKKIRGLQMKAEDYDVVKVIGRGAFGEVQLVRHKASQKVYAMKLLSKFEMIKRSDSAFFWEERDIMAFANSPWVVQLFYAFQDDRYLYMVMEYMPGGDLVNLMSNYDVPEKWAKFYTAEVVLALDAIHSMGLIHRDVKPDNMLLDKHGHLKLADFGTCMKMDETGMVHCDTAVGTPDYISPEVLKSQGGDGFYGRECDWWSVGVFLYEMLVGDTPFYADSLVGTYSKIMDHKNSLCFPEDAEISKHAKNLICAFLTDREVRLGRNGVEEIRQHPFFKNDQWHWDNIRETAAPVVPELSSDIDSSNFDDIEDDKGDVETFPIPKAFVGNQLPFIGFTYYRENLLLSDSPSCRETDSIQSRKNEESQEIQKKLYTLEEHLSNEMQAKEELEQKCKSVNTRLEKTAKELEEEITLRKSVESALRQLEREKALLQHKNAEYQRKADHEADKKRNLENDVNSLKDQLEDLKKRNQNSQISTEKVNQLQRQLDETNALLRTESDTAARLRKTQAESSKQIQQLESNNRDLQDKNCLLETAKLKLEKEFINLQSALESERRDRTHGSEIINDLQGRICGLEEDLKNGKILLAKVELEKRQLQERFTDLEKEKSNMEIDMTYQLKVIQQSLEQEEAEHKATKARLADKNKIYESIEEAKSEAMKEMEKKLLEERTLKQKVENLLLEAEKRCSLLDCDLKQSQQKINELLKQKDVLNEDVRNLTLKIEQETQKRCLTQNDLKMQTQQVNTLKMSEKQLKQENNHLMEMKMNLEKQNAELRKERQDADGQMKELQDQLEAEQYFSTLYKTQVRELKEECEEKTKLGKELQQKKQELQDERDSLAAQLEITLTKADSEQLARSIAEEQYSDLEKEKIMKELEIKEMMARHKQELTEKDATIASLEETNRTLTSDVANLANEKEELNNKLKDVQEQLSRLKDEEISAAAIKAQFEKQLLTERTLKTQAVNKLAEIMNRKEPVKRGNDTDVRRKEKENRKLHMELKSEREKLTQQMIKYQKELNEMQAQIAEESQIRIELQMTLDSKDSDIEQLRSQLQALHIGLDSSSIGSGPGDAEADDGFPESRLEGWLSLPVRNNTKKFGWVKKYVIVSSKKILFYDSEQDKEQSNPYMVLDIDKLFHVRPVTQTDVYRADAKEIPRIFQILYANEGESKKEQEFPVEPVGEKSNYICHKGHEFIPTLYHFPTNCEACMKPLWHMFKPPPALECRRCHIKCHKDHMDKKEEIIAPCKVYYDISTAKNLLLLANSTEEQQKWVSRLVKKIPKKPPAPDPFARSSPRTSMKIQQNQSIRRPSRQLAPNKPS
row,Molecule,pIC50
1,"2-cyclopropyl-4- {[(aR)-6-{4-[(1R)- 1-hydroxyethyl]- 2,5- dioxoimidazolidin- 1- yl}spiro[3.3]heptan- 2-yl]oxy}-1,3- thiazole-5- carboxamide [Example 109]",6.48
2,"NC(=O)c1c(O[C@H]2CC3(C[C@H](NC(=O)c4cnn5cc(OCC(F)F)ccc45)C3)C2)nn2ccccc12 (stereo partly drawn) [Example 122, 2-{[(4s)-6-[6-(2,2-difluoroethoxy)pyrazolo[1,5-a]pyridine-3-amido]spiro[3.3]heptan-2-yl]oxy}pyrazolo[1,5-a]pyridine-3-carboxamide]",6.93
3,"Cc1ccn2nc(O[C@H]3CC4(C[C@H](NC(=O)c5nn(C(F)F)c6cc(OCC(C)(C)O)ccc56)C4)C3)c(C(N)=O)c2c1 (stereo partly drawn) [Example 132, 1-(difluoromethyl)-6-(2-hydroxy-2-methylpropoxy)-N-[(4s)-6-({3-carbamoyl-5-methylpyrazolo[1,5-a]pyridin-2-yl}oxy)spiro[3.3]heptan-2-yl]-1H-indazole-3-carboxamide]",6.65
4,"CCn1cc(C(N)=O)c(O[C@H]2CC3(C[C@H](NC(=O)c4cnn5c(C6CC6)c(OCC(C)(C)O)ccc45)C3)C2)n1 (stereo partly drawn) [Example 19, 3-({(aR)-6-[7-cyclopropyl-6-(2-hydroxy-2-methylpropoxy)pyra-zolo[1,5-a]pyridine-3-amido]spiro[3.3]hep-tan-2-yl}oxy)-1-ethyl-1H-pyrazole-4-carboxamide]",7.98
5,"COCCn1cc(C(N)=O)c(O[C@H]2CC3(C[C@H](NC(=O)c4cnn5c(C6CC6)c(OCC(C)(C)O)ccc45)C3)C2)n1 (stereo partly drawn) [Example 23, 3-({(aR)-6-[7-cyclopropyl-6-(2-hydroxy-2-methylpropoxy)pyra-zolo[1,5-a]pyridine-3-amido]spiro[3.3]hep-tan-2-yl}oxy)-1-(2-methoxyethyl)-1H-pyrazole-4-carboxamide]",7.11

# Second part, the molecule after the results:
row,pIC50,Molecule
1,6.26,"CC(C)(O)COc1ccc2c(C(=O)N[C@H]3C[C@]4(C3)C[C@H](Oc3c(C(N)=O)cnn3CCCN)C4)cnn2c1C1CC1 (stereo partly drawn) [Example 28, 1-(3-aminopropyl)-5-({(aR)-6-[7-cyclopropyl-6-(2-hydroxy-2-methylpropoxy)pyra-zolo[1,5-a]pyridine-3-amido]spiro[3.3]hep-tan-2-yl}oxy)-1H-pyrazole-4-carboxamide]"
2,6.79,"Cc1sc2cc(C(N)=O)c(O[C@H]3C[C@@]4(C[C@H](NC(=O)c5nnc(NCC(C)C)s5)C4)C3)nc2c1C (stereo partly drawn) [Example 162, 5-[(2-methylpropyl)amino]-N-[(4s)-6-({6-carbamoyl-2,3-dimethylthieno[3,2-b]pyridin-5-yl}oxy)spiro[3.3]heptan-2-yl]-1,3,4-thiadiazole-2-carboxamide]"
3,7.94,"NC(=O)c1sc(C2CC2)nc1O[C@H]1C[C@@]2(C[C@H](NC(=O)c3cnn4cc(OCC(F)(F)F)ccc34)C2)C1 (stereo partly drawn) [Example 62, 2-cyclopropyl-4-{[(aR)-6-[6-(2,2,2-trifluoroethoxy)pyra-zolo[1,5-a]pyridine-3-amido]spiro[3.3]hep-tan-2-yl]oxy}-1,3-thiazole-5-carboxamide]"
4,7.70,"[H][C@]1(Oc2c(C(N)=O)sc3ccccc23)C[C@]2(C[C@@H](NC(=O)c3cnn4c(C5CC5)c(OCC(C)(C)O)ccc34)C2)C1 (stereo partly drawn) [Example 2, N-((aR)-6-((2-Carbamoylbenzo[b]thiophen-3-yl)oxy)spiro[3.3]heptan-2-yl)-7-cyclopropyl-6-(2-hydroxy-2-methylpropoxy)pyrazolo[1,5-a]pyridine-3-carboxamide]"
